Results: US20250049928A1, “ANESTHETIC PRODRUGS AND DERIVATIVES THEREOF FOR PROLONGED SENSORY SELECTIVE NERVE BLOCKAGE” (The Board of Trustees of The University of Alabama, priority 2023, published 2025)
Values joined by “and” are separate entries in the source; they are usually repeats but may differ in a detail not shown here. Equal entries are not always repeated. “Also recorded” adds a separate entry of the source. Where two headings read alike, the source gives them in different places.

Tests used:
GLUT1 = GLUT1 (Homo sapiens, UniProt P11166); conditions: cited from earlier work
rats [1] = conditions: rat, in vivo
sciatic nerve [2] = test: Rat sciatic nerve block: nociceptive axon blockade (hotplate thermal latency); assay type: in vivo, Sprague-Dawley rats
sciatic nerve [3] = test: Rat sciatic nerve block: motor axon blockade (weight-bearing test); assay type: in vivo, Sprague-Dawley rats
rats [4] = conditions: rat, in vivo; remark: listed apart in the source
Log P = conditions: octanol/water
GLUT3 = GLUT3 (Homo sapiens, UniProt P11169); conditions: read-out: Km for GLUT3; cited from earlier work
sciatic nerve [5] = conditions: rat, in vivo
[6] = test system: sciatic nerves and surrounding tissues; conditions: rat, in vivo
[7] = test system: Esterase (from porcine liver); conditions: pig
[8] = read-out: Km (transporter protein affinity for sugar molecules)

Sequence of GLUT1 (P11166 whole entry, species assumed): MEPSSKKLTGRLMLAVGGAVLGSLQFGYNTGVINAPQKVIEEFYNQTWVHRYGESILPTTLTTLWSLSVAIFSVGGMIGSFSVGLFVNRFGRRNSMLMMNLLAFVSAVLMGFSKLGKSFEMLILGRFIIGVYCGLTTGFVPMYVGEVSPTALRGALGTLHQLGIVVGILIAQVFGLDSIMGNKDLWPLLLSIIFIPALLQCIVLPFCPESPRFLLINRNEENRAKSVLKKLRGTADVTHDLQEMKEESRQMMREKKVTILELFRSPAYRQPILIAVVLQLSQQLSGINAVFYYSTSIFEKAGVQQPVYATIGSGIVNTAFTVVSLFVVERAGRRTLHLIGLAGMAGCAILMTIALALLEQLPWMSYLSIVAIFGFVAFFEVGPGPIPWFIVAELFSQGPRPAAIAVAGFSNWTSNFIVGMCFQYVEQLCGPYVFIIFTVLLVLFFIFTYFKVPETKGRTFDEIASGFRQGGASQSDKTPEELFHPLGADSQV
Sequence of GLUT3 (P11169 whole entry, species assumed): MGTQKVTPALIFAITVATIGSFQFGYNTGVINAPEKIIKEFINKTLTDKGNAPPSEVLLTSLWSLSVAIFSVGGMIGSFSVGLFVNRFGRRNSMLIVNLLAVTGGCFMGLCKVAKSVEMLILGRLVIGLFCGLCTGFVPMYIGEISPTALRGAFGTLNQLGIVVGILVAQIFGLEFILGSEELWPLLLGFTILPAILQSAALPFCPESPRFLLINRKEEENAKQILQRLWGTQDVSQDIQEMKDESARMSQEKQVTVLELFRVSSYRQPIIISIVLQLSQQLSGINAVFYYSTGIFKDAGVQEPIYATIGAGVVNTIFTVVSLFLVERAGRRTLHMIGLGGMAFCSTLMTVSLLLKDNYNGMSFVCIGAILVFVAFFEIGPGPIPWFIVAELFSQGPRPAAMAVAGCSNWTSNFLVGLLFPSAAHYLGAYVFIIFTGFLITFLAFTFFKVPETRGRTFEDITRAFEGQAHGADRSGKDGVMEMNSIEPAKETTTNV

Compound: O=C1O[C@H]([C@@H](O)CO)C(=O)C1=O [DHA, dehydroascorbic acid]
- Km (GLUT1; [8]): 1.1 mM

Compound: COc1cc(CNC(=O)CCCC/C=C/C(C)C)ccc1OC[C@H]1OC(O)[C@H](O)[C@@H](O)[C@H]1O (stereo partly shown) [Gal-CAP prodrug, galactose-capsaicin prodrug]
- frequency of licking within 5 minutes after injection (rats [1]): 1±1.41 times
- total duration of licking behavior (rats [1]): 4.55 ± 5.77 s

Compound: CCCCN1CCCCC1C(=O)Nc1c(C)cccc1C (stereo not shown) [bupivacaine, reference compound]
- successful sensory blockade (sciatic nerve [2]; 8.65 mM in 0.3 mL PBS): failed to achieve a successful block
- mean duration of sensory block (sciatic nerve [2]; 17.3 mM in 0.3 mL PBS): 1.75 ± 0.29 h
- sensory block success (sciatic nerve [2]; 17.3 mM in 0.3 mL PBS): 100%
- duration of motor deficits / motor involvement (sciatic nerve [3]; 17.3 mM in 0.3 mL PBS): 1.375 ± 0.48 h

Compound: COc1cc(CNC(=O)CCCC/C=C/C(C)C)ccc1O [capsaicin]
- successful analgesic block (thermal paw withdrawal latencies >7 seconds) (sciatic nerve [2]; injection doses above 3.28 μmol): 100%
- successful analgesic block (thermal paw withdrawal latencies >7 seconds) (sciatic nerve [2]; injection doses above 1 mg, 0.3 mL at left sciatic nerve): 100%
- duration of nociceptive axon block (sciatic nerve [2]; injection of 6.56 μmol): 4.0 ± 2.0 h
- duration of nociceptive axon blockade (sciatic nerve [2]; single injection of 2 mg in 0.3 mL at sciatic nerve): 4 ± 2 h
- duration of nociceptive axon blockade (sciatic nerve [2]; single injection of 3 mg in 0.3 mL at sciatic nerve): 30 ± 12 h
- rats that developed acute respiratory distress (rats [4]; male, Sprague-Dawley): 75%
- rats that developed contralateral nociceptive axon block (rats [4]; male, Sprague-Dawley): 50%
- rats that experienced a seizure (rats [4]; male, Sprague-Dawley): 25%
- rats with irreversible nociceptive axon blockade in the injected hind limb (rats [4]; male, Sprague-Dawley): 25%
- rats exhibiting at least one systemic adverse effect (rats [4]): all rats
- motor deficits in the injected hind limb (sciatic nerve [3]; 0.5-3 mg in 0.3 mL at sciatic nerve): did not produce any motor deficits
- motor deficits in the injected hind limb (sciatic nerve [3]; Example 4, doses in μmol, 0.3 mL PBS): did not produce any motor deficits
- logP (Log P): 3.66

Compound: O=C[C@H](O)[C@@H](O)[C@@H](O)[C@H](O)CO [galactose]
- Km (GLUT3): 8.5 mM
- Km (GLUT1; [8]): 15 mM
- Km (GLUT1; read-out: Km for GLUT1): 17 mM

Compound: N[C@H]1C(O)O[C@H](CO)[C@@H](O)[C@@H]1O (stereo partly shown) [glucosamine]
- Km (GLUT1; [8]): 2.5 mM

Compound: galactosamine-fluorescein [Gal-FL]
- mean fluorescent intensity in epineurium/perineurium and inside the nerve (sciatic nerve [5]): significantly higher

Compound: galactose-capsaicin prodrug
- change of nociceptive axon block duration with increasing glucose dose (sciatic nerve [2]; rat, in vivo): decrease in nociceptive axon block duration; also recorded: significant decrease
- duration of nociceptive axon blockade (sciatic nerve [2]; rat, in vivo): 150.0 ± 76.8 h and 234 ± 36 h
- successful analgesic block (thermal paw withdrawal latencies >7 seconds) (sciatic nerve [2]; rat, in vivo): 100%
- appearance of surrounding tissues at dissection [6]: did not appear edematous or discolored
- microscopic examination for myotoxicity or inflammation [6]: did not reveal significant myotoxicity or inflammation
- toluidine blue stained sciatic nerve sections [6]: normal in appearance without evidence of demyelination or axonal degeneration
- capsaicin-related side effects (spontaneous pain behavior, contralateral block, irreversible block, seizure, acute respiratory distress) (rats [4]): did not cause any capsaicin-related side effects
- motor deficits in the injected hind limb (sciatic nerve [3]; rat, in vivo): did not produce any motor deficits

Compound: galacturonic acid-capsaicin prodrug [GalA-CAP prodrug]
- change of nociceptive axon block duration with increasing glucose dose (sciatic nerve [2]; rat, in vivo): significantly reduced with increasing glucose dose
- duration of nociceptive axon blockade (sciatic nerve [2]; rat, in vivo): 150.0 ± 76.8 h and 234 ± 37 h and 150 ± 76.84 h
- successful analgesic block (thermal paw withdrawal latencies >7 seconds) (sciatic nerve [2]; rat, in vivo): 100%
- time to restoration of full thermal stimulus sensitivity (return to baseline thermal latency) (sciatic nerve [2]; rat, in vivo): 13 days
- Myotoxicity Score (median; range 0-6) [6]: 0
- appearance of surrounding tissues at dissection [6]: did not appear edematous or discolored
- myotoxicity score, median for all groups [6]: 0
- unmyelinated C-fibers / axon diameter by TEM [6]: not significantly increased
- frequency of licking within 5 minutes after injection (rats [1]): 1±0 times
- total duration of licking behavior (rats [1]): 4.28 ± 5.81 s
- capsaicin-related side effects (spontaneous pain behavior, contralateral block, irreversible block, seizure, acute respiratory distress) (rats [4]): did not cause any capsaicin-related side effects
- seizures observed (systemic toxicity) (rats [4]): 2 out of 4
- motor deficits in the injected hind limb (sciatic nerve [3]; rat, in vivo): did not produce any motor deficits
- Half-lives [7]: <10 min

Compound: glucuronic acid-linked bupivacaine [GluA-Bup]
- mean duration of sensory block (sciatic nerve [2]; rat, in vivo): 13.0 ± 2.58 h
- mean duration of sensory blockade (sciatic nerve [2]; rat, in vivo): 3.75 ± 0.50 h
- sensory block success (sciatic nerve [2]; rat, in vivo): 100%
- successful sensory blockade (sciatic nerve [2]; rat, in vivo): 100%
- duration of motor deficits / motor involvement (sciatic nerve [3]; rat, in vivo): 1.625 ± 0.25 h
- motor deficits (sciatic nerve [3]; rat, in vivo): without any motor deficits

Compound: glycine-capsaicin prodrug [Gly-CAP prodrug]
- duration of nociceptive axon blockade (sciatic nerve [2]; rat, in vivo): 17.33 ± 11.55 h
- successful nociceptive axon blockade (sciatic nerve [2]; rat, in vivo): 100%
